Measured values: ChEMBL document CHEMBL1909046, “DrugMatrix in vitro pharmacology data”

Key:
[1] = DRUGMATRIX: Atrial Natriuretic Factor (ANF) radioligand binding (ligand: [125I] ANF (rat)); format: cell membranes, Cavia porcellus, Dunkin-Hartley, Adrenal gland, Membrane; conditions: Not Active = under 50% inhibition at 10 µM
[2] = biological target: Prostaglandin G/H synthase 1 (Homo sapiens, UniProt P23219); experiment: biochemical; format: tissue-based, Platelet; conditions: platelet;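 further: inhibition of COX-1 enzyme activity, with arachidonic acid supplied as substrate; in other assays of this panel Not Active means under 50% inhibition at 10 µM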
[3] = DRUGMATRIX: GABAA, Flunitrazepam, Central radioligand binding (ligand: [3H] Flunitrazepam); format: cell membranes, Rattus norvegicus, Wistar, Brain, Membrane; conditions: Not Active = under 50% inhibition at 10 µM
[4] = biological target: Glycine receptor (Rattus norvegicus, UniProt P22771+P24524+P07727+P20781); format: cell membranes, Wistar, Spinal cord, Membrane; further: in other assays of this panel Not Active means under 50% inhibition at 10 µM
[5] = biological target: T1, Cysteinyl leukotriene receptor 1 (Homo sapiens, UniProt Q9Y271); format: cell membranes, Membrane; conditions: cho-k1; further: in other assays of this panel Not Active means under 50% inhibition at 10 µM
T1 sequence (Q9Y271 whole entry): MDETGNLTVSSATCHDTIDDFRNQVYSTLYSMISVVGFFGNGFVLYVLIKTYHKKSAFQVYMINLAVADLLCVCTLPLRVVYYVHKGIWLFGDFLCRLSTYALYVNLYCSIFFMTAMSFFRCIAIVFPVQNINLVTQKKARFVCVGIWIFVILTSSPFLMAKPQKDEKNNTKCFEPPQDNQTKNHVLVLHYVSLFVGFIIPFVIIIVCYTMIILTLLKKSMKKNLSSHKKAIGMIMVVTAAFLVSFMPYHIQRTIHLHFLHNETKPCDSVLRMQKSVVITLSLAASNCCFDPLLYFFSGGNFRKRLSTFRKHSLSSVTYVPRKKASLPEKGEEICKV

[6] = biological target: cGMP-specific 3',5'-cyclic phosphodiesterase (Homo sapiens, UniProt O76074); experiment: DRUGMATRIX: Phosphodiesterase PDE5 enzyme inhibition (substrate: [3H]cGMP + cGMP); format: tissue-based, Platelet; conditions: platelet; Not Active = under 50% inhibition at 10 µM
[7] = biological target: Cytochrome P450 2E1 (Homo sapiens, UniProt P05181); conditions: bti-tn-5b1-4; further: in other assays of this panel Not Active means under 50% inhibition at 10 µM
[8] = biological target: T2, Glucocorticoid receptor (Homo sapiens, UniProt P04150); conditions: hela s3; further: in other assays of this panel Not Active means under 50% inhibition at 10 µM
T2 sequence (P04150 whole entry): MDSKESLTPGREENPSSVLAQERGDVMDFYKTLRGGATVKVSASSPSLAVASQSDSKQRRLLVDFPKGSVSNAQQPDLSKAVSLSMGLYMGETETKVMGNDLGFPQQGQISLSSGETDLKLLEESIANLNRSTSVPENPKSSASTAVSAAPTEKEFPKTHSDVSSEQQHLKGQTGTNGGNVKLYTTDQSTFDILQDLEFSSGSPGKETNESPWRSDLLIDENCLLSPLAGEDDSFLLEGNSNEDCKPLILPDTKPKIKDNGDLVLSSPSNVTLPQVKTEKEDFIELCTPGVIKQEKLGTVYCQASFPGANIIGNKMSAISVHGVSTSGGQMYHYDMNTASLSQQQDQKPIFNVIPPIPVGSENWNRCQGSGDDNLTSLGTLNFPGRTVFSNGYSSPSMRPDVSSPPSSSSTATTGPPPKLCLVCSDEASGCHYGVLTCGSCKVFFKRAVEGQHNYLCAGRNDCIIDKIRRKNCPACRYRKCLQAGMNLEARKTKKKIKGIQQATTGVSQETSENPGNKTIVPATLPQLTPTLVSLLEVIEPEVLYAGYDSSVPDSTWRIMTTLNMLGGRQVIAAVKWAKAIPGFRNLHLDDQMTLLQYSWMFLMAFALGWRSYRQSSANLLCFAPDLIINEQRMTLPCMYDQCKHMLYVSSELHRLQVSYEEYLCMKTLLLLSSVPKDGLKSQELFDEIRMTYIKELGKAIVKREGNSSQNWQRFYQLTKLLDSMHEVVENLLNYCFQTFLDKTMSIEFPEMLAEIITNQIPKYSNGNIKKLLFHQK

Chain of Cytochrome P450 2E1 (P05181 whole entry): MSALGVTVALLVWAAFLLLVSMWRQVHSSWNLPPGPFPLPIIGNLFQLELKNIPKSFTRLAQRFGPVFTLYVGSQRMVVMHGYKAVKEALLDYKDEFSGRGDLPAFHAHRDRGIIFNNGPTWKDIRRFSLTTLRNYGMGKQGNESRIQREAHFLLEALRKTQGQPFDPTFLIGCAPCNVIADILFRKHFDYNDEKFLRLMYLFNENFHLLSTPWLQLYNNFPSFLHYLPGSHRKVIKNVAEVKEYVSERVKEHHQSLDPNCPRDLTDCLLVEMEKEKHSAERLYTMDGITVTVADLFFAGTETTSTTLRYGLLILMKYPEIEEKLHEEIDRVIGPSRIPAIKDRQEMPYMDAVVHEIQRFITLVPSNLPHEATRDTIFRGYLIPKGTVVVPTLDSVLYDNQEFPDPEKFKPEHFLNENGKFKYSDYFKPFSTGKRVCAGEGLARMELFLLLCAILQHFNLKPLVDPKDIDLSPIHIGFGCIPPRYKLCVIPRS
Chain of Prostaglandin G/H synthase 1 (P23219 whole entry): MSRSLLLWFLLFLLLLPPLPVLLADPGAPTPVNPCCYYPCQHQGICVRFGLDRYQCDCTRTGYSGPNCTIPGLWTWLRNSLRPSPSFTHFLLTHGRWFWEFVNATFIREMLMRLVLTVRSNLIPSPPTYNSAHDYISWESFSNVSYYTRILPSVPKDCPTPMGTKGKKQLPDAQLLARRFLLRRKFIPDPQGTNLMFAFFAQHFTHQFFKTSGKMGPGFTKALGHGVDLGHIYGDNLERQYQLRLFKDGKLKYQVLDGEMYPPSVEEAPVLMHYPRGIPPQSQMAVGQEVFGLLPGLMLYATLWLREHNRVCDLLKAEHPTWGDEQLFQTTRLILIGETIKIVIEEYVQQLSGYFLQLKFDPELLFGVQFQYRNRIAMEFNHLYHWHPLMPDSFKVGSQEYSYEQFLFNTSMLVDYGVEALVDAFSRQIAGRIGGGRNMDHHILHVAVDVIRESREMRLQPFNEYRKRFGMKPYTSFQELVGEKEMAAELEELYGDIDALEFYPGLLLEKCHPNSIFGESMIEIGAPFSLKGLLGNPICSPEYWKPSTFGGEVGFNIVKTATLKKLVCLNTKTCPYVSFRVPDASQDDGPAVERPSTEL

| SMILES | IC50 [1] | Ki [1] | IC50 [2] | IC50 [3] | Ki [3] | IC50 [4] | IC50 [5] | IC50 [6] | IC50 [7] | Ki [7] | IC50 [8] | IC50 ([3]; read-out: IC50) [nM] | Ki ([3]; read-out: Ki) [nM] |
| --- | --- | --- | --- | --- | --- | --- | --- | --- | --- | --- | --- | --- | --- |
| CCOc1nc2cccc(C(=O)O)c2n1Cc1ccc(-c2ccccc2-c2nnn[nH]2)cc1 | Not Active | Not Active | Not Active | Not Active | Not Active | Not Active | Not Active | Not Active | Not Active | Not Active | Not Active |  |  |
| O=C(O)CCCc1cccs1 | Not Active | Not Active | Not Active | Not Active | Not Active | Not Active | Not Active | Not Active | Not Active | Not Active | Not Active |  |  |
| O=C(c1ccccc1F)N1CCC(Cc2ccccc2)CC1 | Not Active | Not Active | Not Active | Not Active | Not Active | Not Active | Not Active | Not Active | Not Active | Not Active | Not Active |  |  |
| CC(O)COC[C@H]1O[C@@H]2O[C@H]3[C@H](O)[C@@H](O)[C@@H](O[C@H]4[C@H](O)[C@@H](O)[C@@H](O[C@H]5[C@H](O)[C@@H](O)[C@@H](O[C@H]6[C@H](O)[C@@H](O)[C@@H](O[C@H]7[C@H](O)[C@@H](O)[C@@H](O[C@H]8[C@H](O)[C@@H](O)[C@@H](O[C@H]1[C@H](O)[C@H]2O)O[C@@H]8COCC(C)O)O[C@@H]7COCC(C)O)O[C@@H]6COCC(C)O)O[C@@H]5COCC(C)O)O[C@@H]4COCC(C)O)O[C@@H]3COCC(C)O (stereo partly drawn) [2-HYDROXYPROPYL-BETA-CYCLODEXTRIN] | Not Active | Not Active | Not Active | Not Active | Not Active | Not Active | Not Active | Not Active | Not Active | Not Active | Not Active |  |  |
| NC(=O)c1cccc(N)c1 [3-AMINOBENZAMIDE] | Not Active | Not Active | Not Active | Not Active | Not Active | Not Active | Not Active | Not Active | Not Active | Not Active | Not Active |  |  |
| C[C@H]1O[C@H](O[C@H]2[C@H](O)[C@@H](O)[C@@H](O[C@H]3[C@H](O)[C@@H](O)C(O)O[C@@H]3CO)O[C@@H]2CO)[C@H](O)[C@@H](O)[C@@H]1N[C@H]1C=C(CO)[C@@H](O)[C@H](O)[C@H]1O (some centres undefined) [ACARBOSE] | Not Active | Not Active | Not Active | Not Active | Not Active | Not Active | Not Active | Not Active | Not Active | Not Active | Not Active |  |  |
| CC[C@H]1[C@@H]2C[C@H]3[C@@H]4N(C)c5ccccc5[C@]45C[C@@H]([C@@H]2[C@H]5O)N3[C@@H]1O [AJMALINE] | Not Active | Not Active | Not Active | Not Active | Not Active | Not Active | Not Active | Not Active | Not Active | Not Active | Not Active |  |  |
| NCCCNCCSP(=O)(O)O [AMIFOSTINE] | Not Active | Not Active | Not Active | Not Active | Not Active | Not Active | Not Active | Not Active | Not Active | Not Active | Not Active |  |  |
| CN(C)CCC=C1c2ccccc2CCc2ccccc21 [AMITRIPTYLINE] | Not Active | Not Active | Not Active | Not Active | Not Active | Not Active | Not Active | Not Active | Not Active | Not Active | Not Active |  |  |
| CC(C)c1c(C(=O)Nc2ccccc2)c(-c2ccccc2)c(-c2ccc(F)cc2)n1CC[C@@H](O)C[C@@H](O)CC(=O)O [ATORVASTATIN] | Not Active | Not Active | Not Active | Not Active | Not Active | Not Active | Not Active | Not Active | Not Active | Not Active | Not Active |  |  |
| CC(=O)OC[C@H]1O[C@@H](n2ncc(=O)[nH]c2=O)[C@H](OC(C)=O)[C@@H]1OC(C)=O [AZARIBINE] | Not Active | Not Active | Not Active | Not Active | Not Active | Not Active | Not Active | Not Active | Not Active | Not Active | Not Active |  |  |
| C[C@H]1[C@H](NC(=O)/C(=N\OC(C)(C)C(=O)O)c2csc(N)n2)C(=O)N1S(=O)(=O)O [AZTREONAM] | Not Active | Not Active | Not Active | Not Active | Not Active | Not Active | Not Active | Not Active | Not Active | Not Active | Not Active |  |  |
| O=C(O)CCNC(=O)c1ccc(/N=N/c2ccc(O)c(C(=O)O)c2)cc1 [BALSALAZIDE] | Not Active | Not Active | Not Active | Not Active | Not Active | Not Active | Not Active | Not Active | Not Active | Not Active | Not Active |  |  |
| COc1cc(OC)c(C(=O)CCCN2CCCC2)c(OC)c1 [BUFLOMEDIL] | Not Active | Not Active | Not Active | Not Active | Not Active | Not Active | Not Active | Not Active | Not Active | Not Active | Not Active |  |  |
| Cn1c(=O)c2c(ncn2C)n(C)c1=O [CAFFEINE] | Not Active | Not Active | Not Active | Not Active | Not Active | Not Active | Not Active | Not Active | Not Active | Not Active | Not Active |  |  |
| CO/N=C(\C(=O)N[C@@H]1C(=O)N2C(C(=O)O)=C(COC(C)=O)CS[C@H]12)c1csc(N)n1 [CEFOTAXIME] | Not Active | Not Active | Not Active | Not Active | Not Active | Not Active | Not Active | Not Active | Not Active | Not Active | Not Active |  |  |
| CNC1=Nc2ccc(Cl)cc2C(c2ccccc2)=[N+]([O-])C1 [CHLORDIAZEPOXIDE] | Not Active | Not Active | Not Active |  |  | Not Active | Not Active | Not Active | Not Active | Not Active | Not Active | 1430 | 1160 |
| Cc1cc(O)cc(C)c1Cl [CHLOROXYLENOL] | Not Active | Not Active | Not Active | Not Active | Not Active | Not Active | Not Active | Not Active | Not Active | Not Active | Not Active |  |  |
| CCCNC(=O)NS(=O)(=O)c1ccc(Cl)cc1 [CHLORPROPAMIDE] | Not Active | Not Active | Not Active | Not Active | Not Active | Not Active | Not Active | Not Active | Not Active | Not Active | Not Active |  |  |
